Source: paper PMC11695783 (Frontiers in Pharmacology, 2024)

How the values were obtained:
ICR strain mice = assay: Acute toxicity study, intramuscular injection; assay type: in vivo
Protocol: Ten mice were gavaged with 5,000 mg/kg of compound 16C and another 10 mice were given DMSO orally as a control. The mice were fed and watered ad libitum. The animals’ appearance, diet, behavior, and death were observed and recorded for 14 consecutive days after administration. The LD50 was calculated as previously described ([Xiao et al., 2019]), and the test was repeated twice. To assess the acute toxicity of intramuscular administration in mice, we repeated the above experiment and replaced gavage with intramuscular injection.

RAW 264.7 = test system: RAW 264.7; design: method as in PMID 26150841; details: RAW 264.7, 8 μg/mL, compared with the control drugs; ref [30]; cited from earlier work

C=CC1(C)CC(OC(=O)CSc2ccc(NC(=O)Cc3ccc([N+](=O)[O-])cc3)cc2)C2(C)C(C)CCC3(CCC(=O)C32)C(C)C1O (stereo not drawn) [compound 16C, 22–((4-((4-nitrophenyl)acetamido)phenyl)thio)deoxypleuromutilin]
mouse deaths (ICR strain mice; single dose of 5,000 mg/kg, after 2 weeks): did not result in any mouse deaths
LD50 (ICR strain mice; single dose, mice, observed 14 d): > 5,000 mg/kg
influence on cell viability (RAW 264.7): only slight influences on the viability
